According to ChEMBL document CHEMBL5727241, “Benzazepine dicarboxamide compounds with tertiary amide function” (2019):

Assays:
Toll-like receptor 7 = target: T1, Toll-like receptor 7 (Homo sapiens, UniProt Q9NYK1); assay: (§1) Pharmacological Assay: For TLR8 and TLR7 activity testing, HEK-Blue human TLR8 or TLR7 cells (Invivogen, San Diego, Calif., USA) are used, respectively. These cells are designed for studying the stimulation of human TLR8 or TLR7 by monitoring the activation of NF-κB. A SEAP (secreted embryonic alkaline phosphatase) reporter gene is placed under the control of the IFN-b minimal promoter fused to five NF-κB and AP-1-binding sites. Therefore the reporter expression is regulated by the NF-κB promoter upon stimulation of human TLR8 or TLR7 for 20 hours. The cell culture supernatant SEAP reporter activity was determined using Quanti Blue kit (Invivogen, San Diego, Ca, USA) at a wavelength of 640 nm, a detection medium that turns purple/blue in the presence of alkaline phosphatase.
T1 sequence (Q9NYK1 whole entry): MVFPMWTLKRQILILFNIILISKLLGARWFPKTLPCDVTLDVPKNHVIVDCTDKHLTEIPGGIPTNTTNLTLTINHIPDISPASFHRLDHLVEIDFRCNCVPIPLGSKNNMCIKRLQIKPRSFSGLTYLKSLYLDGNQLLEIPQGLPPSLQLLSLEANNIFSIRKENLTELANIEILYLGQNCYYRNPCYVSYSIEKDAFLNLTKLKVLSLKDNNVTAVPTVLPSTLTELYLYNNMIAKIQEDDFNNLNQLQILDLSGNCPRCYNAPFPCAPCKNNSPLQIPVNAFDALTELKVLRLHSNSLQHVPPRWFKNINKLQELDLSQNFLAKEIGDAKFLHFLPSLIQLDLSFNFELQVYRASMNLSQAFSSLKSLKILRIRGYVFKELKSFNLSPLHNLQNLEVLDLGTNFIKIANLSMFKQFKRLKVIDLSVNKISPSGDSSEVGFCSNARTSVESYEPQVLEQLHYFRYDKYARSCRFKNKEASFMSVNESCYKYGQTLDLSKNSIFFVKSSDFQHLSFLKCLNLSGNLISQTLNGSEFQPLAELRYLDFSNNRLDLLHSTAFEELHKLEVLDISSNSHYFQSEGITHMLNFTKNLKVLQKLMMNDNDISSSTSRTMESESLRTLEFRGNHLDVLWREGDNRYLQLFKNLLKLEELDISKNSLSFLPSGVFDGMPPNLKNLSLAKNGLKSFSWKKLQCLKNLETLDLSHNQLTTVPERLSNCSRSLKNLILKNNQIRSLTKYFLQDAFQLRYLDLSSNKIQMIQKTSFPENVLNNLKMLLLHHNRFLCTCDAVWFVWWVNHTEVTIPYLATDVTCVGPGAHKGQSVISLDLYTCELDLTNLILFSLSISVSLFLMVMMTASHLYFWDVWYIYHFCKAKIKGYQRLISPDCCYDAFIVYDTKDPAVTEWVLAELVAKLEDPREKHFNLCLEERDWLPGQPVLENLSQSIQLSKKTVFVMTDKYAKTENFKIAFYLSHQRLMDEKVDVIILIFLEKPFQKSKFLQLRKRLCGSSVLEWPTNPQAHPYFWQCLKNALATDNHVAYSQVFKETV

Toll-like receptor 8 = target: T2, Toll-like receptor 8 (Homo sapiens, UniProt Q9NR97); assay: as §1
T2 sequence (Q9NR97 whole entry): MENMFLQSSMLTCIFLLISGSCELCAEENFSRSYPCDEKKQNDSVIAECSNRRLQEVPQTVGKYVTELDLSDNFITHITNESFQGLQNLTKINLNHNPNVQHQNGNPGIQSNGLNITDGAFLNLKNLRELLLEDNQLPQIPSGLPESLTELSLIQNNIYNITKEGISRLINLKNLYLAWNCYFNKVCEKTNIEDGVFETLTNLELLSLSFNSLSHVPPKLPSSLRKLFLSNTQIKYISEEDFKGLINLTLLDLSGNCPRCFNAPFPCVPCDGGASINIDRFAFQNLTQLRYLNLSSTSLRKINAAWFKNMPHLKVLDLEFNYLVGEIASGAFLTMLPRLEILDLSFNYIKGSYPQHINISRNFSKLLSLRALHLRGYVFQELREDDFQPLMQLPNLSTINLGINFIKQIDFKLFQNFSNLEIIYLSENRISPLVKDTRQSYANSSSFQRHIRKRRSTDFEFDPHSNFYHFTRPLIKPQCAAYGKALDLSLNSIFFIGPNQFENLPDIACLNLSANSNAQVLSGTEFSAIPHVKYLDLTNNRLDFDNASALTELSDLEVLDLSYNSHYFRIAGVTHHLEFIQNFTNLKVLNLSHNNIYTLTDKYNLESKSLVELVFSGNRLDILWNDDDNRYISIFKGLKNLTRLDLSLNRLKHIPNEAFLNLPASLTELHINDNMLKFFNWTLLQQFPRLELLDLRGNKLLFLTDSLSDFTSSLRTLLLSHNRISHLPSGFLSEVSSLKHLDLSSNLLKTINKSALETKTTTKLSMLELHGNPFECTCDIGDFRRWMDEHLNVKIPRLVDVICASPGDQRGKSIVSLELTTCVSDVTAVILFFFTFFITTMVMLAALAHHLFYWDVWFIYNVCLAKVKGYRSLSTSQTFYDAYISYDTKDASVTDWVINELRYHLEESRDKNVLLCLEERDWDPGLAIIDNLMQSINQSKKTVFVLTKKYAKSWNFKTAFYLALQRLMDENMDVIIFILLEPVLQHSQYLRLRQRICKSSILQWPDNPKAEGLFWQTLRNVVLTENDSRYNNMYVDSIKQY

With `CCCN(CCC)C(=O)C1=Cc2ccc(C(=O)N3CC(OCc4ccccc4)C3)cc2N=C(N)C1` the EC50 (Toll-like receptor 7) was 15 µM and the EC50 (Toll-like receptor 8) was 0.004 µM.
